As a reminder, the IC50 is the concentration that gives 50% inhibition. Lower therefore signals inhibition by little substance.

The target of one test is T1, human MGL from HeLa cells (Homo sapiens, UniProt Q99685).
T1 construct: combining endogenously expressed MGL from HeLa cells with test compounds; endogenous in cells; host or cells: HeLa cells / cell homogenates
T1 sequence (Q99685 1-303): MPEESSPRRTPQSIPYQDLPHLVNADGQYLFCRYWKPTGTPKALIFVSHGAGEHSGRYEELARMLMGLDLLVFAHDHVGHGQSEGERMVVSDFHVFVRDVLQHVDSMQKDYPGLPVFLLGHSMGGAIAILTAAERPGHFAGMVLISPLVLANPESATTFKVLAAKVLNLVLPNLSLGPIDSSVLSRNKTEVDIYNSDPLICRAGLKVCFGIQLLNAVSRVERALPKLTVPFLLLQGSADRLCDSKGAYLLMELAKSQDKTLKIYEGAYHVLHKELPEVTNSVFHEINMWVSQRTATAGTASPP
The test can be described thus: In vitro MGL activity assay: [glycerol-1,3-3H]-oleyl glycerol cleavage by MGL from HeLa cells. In kind it is biochemical. The note with it: 300 nM [Glycerol-1,3-3H]-oleyl glycerol, one hour. An excerpt:
MGL is the predominant hydrolase in HeLa cells/cell homogenates.
In turn, `C[C@H]1c2nn(C)c(-c3cc(F)c(F)c(F)c3)c2CCN1C(=O)c1cnn(C)c1[C@H]1CC1F` (mixture of isomers) [Example 339, ((S)-2,7-Dimethyl-3-(3,4,5-trifluorophenyl)-2,4,5,7-tetrahydro-6H-pyrazolo[3,4-c]pyridin-6-yl)(cis-5-(2-fluorocyclopropyl)-1-methyl-1H-pyrazol-4-yl)methanone] came in with an IC50 of 3.01 nM.

With `C[C@H]1c2nn(C)c(-c3cc(F)c(F)c(F)c3)c2CCN1C(=O)c1cnn(C)c1C1CC1F` (mixture of isomers) [Example 340, ((S)-2,7-Dimethyl-3-(3,4,5-trifluorophenyl)-2,4,5,7-tetrahydro-6H-pyrazolo[3,4-c]pyridin-6-yl)(trans-5-(2-fluorocyclopropyl)-1-methyl-1H-pyrazol-4-yl)methanone], the IC50 is 32.5 nM.

The compound `CC1c2nn(C34CC(C3)C4)c(-c3ccccc3)c2CCN1C(=O)c1cnn(C)c1C1CC1` (racemic) [Example 615, racemic-(2-(Bicyclo[1.1.1]pentan-1-yl)-7-methyl-3-phenyl-2,4,5,7-tetrahydro-6H-pyrazolo[3,4-c]pyridin-6-yl)(5-cyclopropyl-1-methyl-1H-pyrazol-4-yl)methanone] registered an IC50 of 821 nM.

Staying with this test, now noted: 300 nM [Glycerol-1,3-3H]-oleyl glycerol, one hour incubation.
Take `CC1c2nn(C)c(-c3ccccc3)c2CCN1C(=O)c1ccc2ncccc2c1` (racemic) [Example 110, (2,7-Dimethyl-3-phenyl-2,4,5,7-tetrahydro-6H-pyrazolo[3,4-c]pyridin-6-yl)(quinolin-6-yl)methanone]: inhibition was half-maximal at 19.9 nM (IC50).

Turning to `CC1c2nn(C)c(-c3cccc(Cl)c3)c2CCN1C(=O)c1cnc2ccoc2c1` (racemic) [Example 126, (3-(3-Chlorophenyl)-2,7-dimethyl-2,4,5,7-tetrahydro-6H-pyrazolo[3,4-c]pyridin-6-yl)(furo[3,2-b]pyridin-6-yl)methanone], the IC50 worked out at 130 nM.

The compound `CC1c2nn(C)c(-c3cccc(Cl)c3)c2CCN1C(=O)c1ccc2nccnc2c1` (racemic) [Example 132, (3-(3-Chlorophenyl)-2,7-dimethyl-2,4,5,7-tetrahydro-6H-pyrazolo[3,4-c]pyridin-6-yl)(quinoxalin-6-yl)methanone] gave an IC50 of 18.4 nM.

Consider `C[C@@H]1c2nn(C)c(-c3ccccc3)c2CCN1C(=O)c1ccc2ncccc2c1` (single isomer, unassigned) [Example 111], for which it took 8240 nM to reach half-maximal inhibition (IC50).

Take `C[C@H]1c2nn(C)c(-c3ccccc3)c2CCN1C(=O)c1ccc2ncccc2c1` (single isomer, unassigned) [Example 112]: 6.96 nM corresponded to half-maximal inhibition (IC50).

Regarding `C[C@H]1c2nn(-c3ccccc3)c(-c3ccccc3)c2CCN1C(=O)c1ccc2ncccc2c1` (single isomer, unassigned) [Example 115], the midpoint of inhibition, the IC50, lay at 44.3 nM.

With `C[C@@H]1c2nn(C)c(-c3cccc(Cl)c3)c2CCN1C(=O)c1cnc2ccoc2c1` (single isomer, unassigned) [Example 127], the IC50 is above 10000 nM.

Take `C[C@H]1c2nn(C)c(-c3cccc(Cl)c3)c2CCN1C(=O)c1cnc2ccoc2c1` (single isomer, unassigned) [Example 128]: the IC50 was found to be 26.3 nM.

In turn, `C[C@@H]1c2nn(C)c(-c3cccc(Cl)c3)c2CCN1C(=O)c1ccc2nccnc2c1` (single isomer, unassigned) [Example 133] returned an IC50 above 10000 nM.

Regarding `C[C@H]1c2nn(C)c(-c3cccc(Cl)c3)c2CCN1C(=O)c1ccc2nccnc2c1` (single isomer, unassigned) [Example 134], the IC50 stood at 4.27 nM.

In the case of `C[C@H]1c2nn(C)c(-c3cc(F)cc(F)c3)c2CCN1C(=O)c1ccc2ncccc2c1` (single isomer, unassigned) [Example 159], 7.3 nM corresponded to half-maximal inhibition (IC50).

Regarding `C[C@H]1c2nn(C)c(-c3cc(F)cc(F)c3)c2CCN1C(=O)c1ccc2nccnc2c1` (single isomer, unassigned) [Example 168], the IC50 turned out to be 7.04 nM.

`C[C@@H]1c2nn(C)c(-c3cc(F)cc(F)c3)c2CCN1C(=O)c1ccc2nccnc2c1` (single isomer, unassigned) [Example 169] yielded an IC50 of 3740 nM.
